Entries after “also recorded” stand apart in the source; their conditions may differ.
How the values were obtained:
primary osteoblast cells = test: ALP staining of primary calvaria (osteoblast) cells; format: cell-based, mouse; details: 4 days
Protocol: Figure 3 Effect of KY‐02061 on Wnt/β‐catenin pathway, osteoblast differentiation, and ex vivo‐cultured calvaria growth • A MC3T3E1 cells were transfected with pTOPFLASH together with pCMV‐β‐gal. After 24 h, the cells were treated with DMSO, KY‐02061 in DMSO, or 5 μM PolyR‐DBM for 2 days. The luciferase activities of whole‐cell lysates were measured and normalized with β‐galactosidase activities. (n = 3) • B Primary calvaria cells were isolated from the calvariae of 4‐day‐old mice (Manton et al, 2007) and treated with DMSO or KY‐02061 in DMSO for 4 days. ALP activity levels were visualized by ALP staining. • C Primary calvaria cells were treated with DMSO or 5 μM KY‐02061 in DMSO for 14 days. […] The calvaria thicknesses were measured from the stained sections using Image Pro software (E). […] (error bars), and significance was assessed using unpaired Student's t‐test.
MC3T3E1 cells and primary calvaria cells were maintained in supplemented α‐MEM. […] For quantitative real‐time PCR (qRT–PCR), total mRNAs were extracted using TRIzol (Invitrogen), complementary DNAs were prepared using Maxime PCR PreMix (iNtRON Biotechnology, Sungnam, Korea), and the qRT–PCRs were performed using SYBR Premix Ex Taq (TaKaRa, Shiga, Japan) in the StepOnePlus Real‐Time PCR machine (Thermo Fisher Scientific, Waltham, MA). […]

primary calvaria cells = test: MTT cell viability of primary calvaria cells; format: cell-based, mouse; details: 2 μM
Protocol: Appendix Figure S2. The effects of Dvl-CXXC5 binding small molecule inhibitors on primary calvaria cells.
A Primary calvaria cells were treated with 2 µ M of each compound for the indicated times. The cells were subjected to an MTT assay (OD590 reading) to measure cell viability. The data are the mean ± s.d. (error […]
B Primary calvaria cells were treated with 2 µ M of each compound for 4 days. ALP activity levels were visualized by ALP staining. [n =2]
(1 picture or pasted object on this page, not shown here)

[1] = test system: normal or cancer cells derived from various tissues; test: MTT assay on various normal or cancer cells; format: cell-based
Protocol: (amino acids 1-34) was subcutaneously injected into the Sham-operated
(Sham) or ovariectomized (OVX) mice on 5 sequential days per week for 4 weeks [n =4]. During treatment, the weights of each mouse were measured and recorded every week (A). After 4 weeks treatment, mice were scarified and their organs were subjected to histological analyses.
Hematoxylin and Eosin staining of liver (B), lung (C), and spleen (D).
E Various cells were treated with DMSO or 0.1, 1, or 10 µ M KY-02327.
After 48 hours, cells were subjected to an MTT assay (OD590 reading) to measure cell viability. NSC: neural stem cell, OB: osteoblast, MSC: mesenchymal stem cell. The data are the mean ± s.d. (error bars). [n =3]

[2] = target: T1, Cytochrome P450 (CYP) 1A2 (Homo sapiens, UniProt P05177); test: Cytochrome P450 inhibition assay, 1A2; details: 10 μM; 1A2, C29 and 3A4 together
T1 sequence (P05177 1-516): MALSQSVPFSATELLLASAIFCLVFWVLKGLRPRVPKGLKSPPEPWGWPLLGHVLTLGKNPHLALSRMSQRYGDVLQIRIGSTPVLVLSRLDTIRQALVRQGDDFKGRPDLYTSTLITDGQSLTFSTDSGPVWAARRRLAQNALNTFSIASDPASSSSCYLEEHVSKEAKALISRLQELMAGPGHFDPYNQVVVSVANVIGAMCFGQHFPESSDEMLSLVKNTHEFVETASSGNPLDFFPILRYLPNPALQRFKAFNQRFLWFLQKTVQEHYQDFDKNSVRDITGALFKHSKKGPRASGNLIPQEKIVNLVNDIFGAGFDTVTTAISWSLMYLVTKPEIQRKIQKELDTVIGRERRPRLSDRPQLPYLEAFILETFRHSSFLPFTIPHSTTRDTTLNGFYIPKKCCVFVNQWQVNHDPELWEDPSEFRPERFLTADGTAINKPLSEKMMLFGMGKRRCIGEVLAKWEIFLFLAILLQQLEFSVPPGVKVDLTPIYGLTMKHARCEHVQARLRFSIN

MC3T3E1 cells = test: β-catenin and Runx2 immunoblot/immunofluorescence in MC3T3E1 cells; format: cell-based, murine; details: 2 days, dose‐dependent
Protocol: Figure 5 Effects of KY‐02327 on Wnt/β‐catenin pathway and osteoblast differentiation in osteoblasts • A MC3T3E1 cells were transfected with pTOPFLASH together with pCMV‐β‐gal. After 24 h, the cells were treated with indicated dose of KY‐02327 for 2 days. The luciferase activities of whole‐cell lysates were measured and normalized with β‐galactosidase activities. (n = 3) • B, C MC3T3E1 cells were treated with indicated concentrations of KY‐02327 for 2 days. β‐Catenin and α‐tubulin were detected by immunoblot (B) or immunofluorescence (C) analyses. Nuclei were counterstained with DAPI (C, blue). Scale bars, 100 μm. • D MC3T3E1 cells were treated with indicated concentrations of KY‐02327 for 14 days. The mRNA level of collagen 1a (Col1a) was measured by quantitative real‐time PCR (qRT–PCR). (n = 3) • E MC3T3E1 cells were treated with indicated concentrations of KY‐02327 for 21 days. The mRNA level of osteocalcin (OCN) was measured by qRT–PCR. (n = 3) Data Information: For A, D, and E, the data are the mean ± s.d. (error bars), and significance was assessed using unpaired Student's t‐test. […]

| Compound | Alkaline phosphatase (ALP) activity (primary osteoblast cells; 2 μM) | ALP activity, dose dependence (primary osteoblast cells) | cytotoxic effect (cell number and viability) (primary calvaria cells) | toxic effect on cell viability (MTT) ([1]; 0.1, 1, or 10 M, 48 hours) | proliferation of MC3T3E1 cells (MTT) ([1]; MC3T3E1) | proliferation of murine primary osteoblasts (OB) ([1]; OB) | inhibitory effect on the liver enzymes (cytochrome P450) [2] | β‐catenin protein level together with Runx2, nuclear β‐catenin (MC3T3E1 cells) |
| --- | --- | --- | --- | --- | --- | --- | --- | --- |
| CCOC(=O)Cn1c(C(=O)OCC)cc2cc(OS(=O)(=O)c3ccc(C)cc3)ccc21 [KY‐02061] | increased; also recorded: strongest increase | increased in a dose‐dependent manner | without any cytotoxic effect | – | – | – | – | – |
| CCOC(=O)c1cc2cc(O)ccc2n1CC(=O)NCCN1CCCCC1 [KY‐02327] | – | – | – | no significant toxic effect | did not significantly affect | unaffected | no inhibitory effect | increased |

From publication PMC4818757, “Small molecule inhibitors of the Dishevelled‐CXXC5 interaction are new drug candidates for bone anabolic osteoporosis therapy” (EMBO Molecular Medicine, 2016)
